Assay results from patent US20130225548A1, “Pyridine Derivative and Medicinal Agent” (NIPPON SHINYAKU CO., LTD., priority 2010, published 2013).
Where a name gives a salt, the structure may show the parent alone.

Molecular target: T1, Syk tyrosine kinase (Homo sapiens, UniProt P43405)
T1 construct: purchased Carna Biosciences, Inc
Test: Test for Syk tyrosine kinase inhibitory activity (ELISA)
Format: biochemical
Conditions: Syk tyrosine kinase (Carna Biosciences), 25 μM ATP in substrate solution, 30° C. 1 hour, n=2; read-out: Evaluation (IC50, concentration inhibiting the tyrosine kinase activity at 50%)
In short: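 Syk kinase (0.025 nM stock before addition) with 625 nM biotinylated peptide and 25 μM ATP (substrate-solution levels) in Tris pH 7.5, MgCl2, DTT; 1 h at 30 °C on streptavidin plates. Phosphotyrosine detected by HRP anti-pTyr antibody, TMB, A450; IC50 by non-linear regression.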

| IC50 | SMILES |
| --- | --- |
| < 0.005 µM | CN(Cc1cncc(-c2cc(C3CC3)cc(Nc3cc(C#N)ccn3)n2)c1)C1CCNCC1 [Example 92, 2-[(4-cyclopropyl-5′-{[N-methyl-N-(piperidin-4-yl)amino]methyl}-2,3′-bipyridin-6-yl)amino]pyridine-4-carbonitrile hydrochloride] |
| 0.05 to 0.5 µM | N#Cc1ccnc(Nc2cc(C3CC3)cc(-c3ccc(N4CCC[C@H]4CO)nc3)n2)c1 [Example 48, 2-{(4-cyclopropyl-6′-[(2S)-2-(hydroxymethyl)pyrrolidin-1-yl]-2,3′-bipyridin-6-yl}amino)pyridine-4-carbonitrile hydrochloride] |
| 0.05 to 0.5 µM | N#Cc1ccnc(Nc2cc(C3CC3)cc(-c3cnc(N4CCC(O)CC4)nc3)n2)c1 [Example 35, 2-({4-cyclopropyl-6-[2-(4-hydroxypiperidin-1-yl)pyrimidin-5-yl]pyridin-2-yl}amino)pyridine-4-carbonitrile hydrochloride] |
| 0.005 to 0.05 µM | N#Cc1ccnc(Nc2cc(C3CC3)cc(-c3cncc(OC4CNC4)c3)n2)c1 [Example 102, 2-{[5′-(azetidin-3-yloxy)-4-cyclopropyl-2,3′-bipyridin-6-yl]amino}pyridine-4-carbonitrile hydrochloride] |
| < 0.005 µM | Cc1nc2ccc(-c3cc(C4CC4)cc(Nc4cc(C#N)ccn4)n3)cc2n1[C@H]1CC[C@H](O)CC1 [Example 159, 2-({4-cyclopropyl-6-[1-trans-4-hydroxycylohexyl)-2-methyl-1H-benzimidazol-6-yl]pyridin-2-yl}amino)pyridine-4-carbonitrile hydrochloride] |
| 0.05 to 0.5 µM | N#Cc1ccnc(Nc2cc(C3CC3)cc(-c3ccc(N4CC[C@@H](NC(N)=O)C4)nc3)n2)c1 [Example 45, 1-[(3R)-1-{6-[(4-cyanopyridin-2-yl)amino]-4-cyclopropyl-2,3′-bipyridin-6′-yl}pyrrolidin-3-yl]urea hydrochloride] |
| < 0.005 µM | N#Cc1ccnc(Nc2cc(C3CC3)cc(-c3cncc(NC4CNC4)c3)n2)c1 [Example 95, 2-{[5′-(azetidin-3-ylamino)-4-cyclopropyl-2,3′-bipyridin-6-yl]amino}pyridine-4-carbonitrile hydrochloride] |
| 0.05 to 0.5 µM | N#Cc1ccnc(Nc2cc(C3CC3)cc(-c3ccc(CN4CCNC(=O)C4)nc3)n2)c1 [Example 70, 2-({4-cyclopropyl-6′-[(3-oxopiperazin-1-yl)methyl]-2,3′-bipyridin-6-yl}amino)pyridine-4-carbonitrile hydrochloride] |
| 0.005 to 0.05 µM | N#Cc1ccnc(Nc2cc(C3CC3)cc(-c3ccc(N4CCC[C@@H](O)C4)nc3)n2)c1 [Example 34, 2-({4-cyclopropyl-6′-[(3R)-3-hydroxypiperidin-1-yl]-2,3′-bipyridin-6-yl}amino)pyridine-4-carbonitrile hydrochloride] |
| 0.05 to 0.5 µM | COCCn1cnc2cc(-c3cc(C4CC4)cc(Nc4cc(C#N)ccn4)n3)ccc21 [Example 148, hydrochloride] |
| < 0.005 µM | N#Cc1ccnc(Nc2cc(C3CC3)cc(-c3cccc(CN4CCNCC4)c3)n2)c1 [Example 84, 2-({4-cyclopropyl-6-[3-(piperazin-1-ylmethyl)phenyl]pyridin-2-yl}amino)pyridine-4-carbonitrile hydrochloride] |
